From ChEMBL document CHEMBL5247592, “Discovery of novel VEGFR-2-PROTAC degraders based on the localization of lysine residues via recruiting VHL for the treatment of gastric cancer” (Eur J Med Chem, 2022) come the findings set out here.

pEC50, pIC50: −log10 of the molar value.

Series [1] concerns HGC-27. In words: Antiproliferative activity against human HGC-27 cells assessed as inhibition of cell growth incubated for 72 hrs by MTT assay. Type of series: functional, cell-based. The following applies: HGC-27, 72 h. For orientation: Tetrazolium dyes change colour on reduction, which living cells bring about.
Series [2] in a line: Cytotoxicity against HEK293T cells assessed as inhibition of cell growth incubated for 72 hrs by MTT assay. In kind it is toxicity, cell-based, HEK-293T. The conditions noted are these: human.
A short description of series [3]: Cytotoxicity against HUVEC cells assessed as inhibition of cell growth incubated for 72 hrs by MTT assay. In kind it is toxicity, cell-based. The following applies: human.
A short description of series [4]: Cytotoxicity against human GES1 cells assessed as inhibition of cell growth incubated for 72 hrs by MTT assay. In kind it is toxicity, cell-based.
The target in series [5] is T1, von Hippel-Lindau disease tumor suppressor/Vascular endothelial growth factor receptor 2 (Homo sapiens, UniProt P35968+P40337). Briefly: PROTAC activity at VHL/VEGFR2 in human HGC-27 cells assessed as reduction in VEGFR2 protein level incubated for 24 hrs by Western blot analysis. In kind it is cell-based. On the technique in general: A western blot detects proteins with antibodies after separation by electrophoresis.
Target sequence in this assay (P35968 whole entry): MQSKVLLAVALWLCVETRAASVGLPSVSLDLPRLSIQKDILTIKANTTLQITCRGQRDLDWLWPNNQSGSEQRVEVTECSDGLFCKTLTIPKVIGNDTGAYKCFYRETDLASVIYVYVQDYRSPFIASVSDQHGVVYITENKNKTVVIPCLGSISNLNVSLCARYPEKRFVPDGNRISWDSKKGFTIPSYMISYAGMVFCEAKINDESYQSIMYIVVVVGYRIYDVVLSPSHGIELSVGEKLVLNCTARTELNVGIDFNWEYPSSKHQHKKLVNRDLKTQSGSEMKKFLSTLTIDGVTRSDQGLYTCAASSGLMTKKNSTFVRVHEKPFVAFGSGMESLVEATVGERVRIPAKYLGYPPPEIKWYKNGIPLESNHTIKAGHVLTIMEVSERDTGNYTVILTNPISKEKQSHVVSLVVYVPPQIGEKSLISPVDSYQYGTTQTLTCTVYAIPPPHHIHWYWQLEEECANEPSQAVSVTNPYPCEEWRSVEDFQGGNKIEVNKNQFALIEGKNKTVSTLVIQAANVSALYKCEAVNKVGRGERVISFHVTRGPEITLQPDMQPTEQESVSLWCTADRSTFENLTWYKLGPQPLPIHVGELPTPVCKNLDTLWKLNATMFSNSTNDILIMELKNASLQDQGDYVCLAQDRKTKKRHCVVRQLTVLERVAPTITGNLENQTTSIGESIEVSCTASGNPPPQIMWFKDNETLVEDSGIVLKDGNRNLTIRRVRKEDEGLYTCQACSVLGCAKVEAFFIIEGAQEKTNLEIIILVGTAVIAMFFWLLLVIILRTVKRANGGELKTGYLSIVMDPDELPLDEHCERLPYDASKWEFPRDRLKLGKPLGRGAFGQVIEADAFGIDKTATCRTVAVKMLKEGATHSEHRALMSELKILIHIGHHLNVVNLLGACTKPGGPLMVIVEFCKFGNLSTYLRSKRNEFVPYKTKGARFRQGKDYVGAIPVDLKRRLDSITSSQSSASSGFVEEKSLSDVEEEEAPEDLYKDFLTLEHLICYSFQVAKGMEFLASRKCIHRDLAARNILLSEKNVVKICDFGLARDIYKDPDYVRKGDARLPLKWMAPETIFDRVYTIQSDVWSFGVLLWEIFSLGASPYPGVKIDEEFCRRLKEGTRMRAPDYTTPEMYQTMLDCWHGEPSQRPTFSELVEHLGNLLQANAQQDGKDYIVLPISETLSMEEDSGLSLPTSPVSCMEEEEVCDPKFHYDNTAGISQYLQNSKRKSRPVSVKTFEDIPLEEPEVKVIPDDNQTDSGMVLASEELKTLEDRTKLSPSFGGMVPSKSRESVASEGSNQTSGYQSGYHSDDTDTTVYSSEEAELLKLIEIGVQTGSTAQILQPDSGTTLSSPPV
Target sequence in this assay (P40337 whole entry): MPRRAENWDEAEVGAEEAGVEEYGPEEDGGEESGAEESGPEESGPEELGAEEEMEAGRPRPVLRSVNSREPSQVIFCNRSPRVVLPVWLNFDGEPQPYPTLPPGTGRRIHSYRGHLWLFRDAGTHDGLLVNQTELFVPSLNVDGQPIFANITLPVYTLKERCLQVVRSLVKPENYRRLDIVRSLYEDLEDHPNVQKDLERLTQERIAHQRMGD

The target of series [6] is T1, von Hippel-Lindau disease tumor suppressor/Vascular endothelial growth factor receptor 2. In words: PROTAC activity at VHL/VEGFR2 in human HGC-27 cells assessed as reduction in VEGFR2 protein level by measuring maximal efficacy incubated for 24 hrs by Western blot analysis relative to control. Type of series: cell-based.
Target sequence in this assay (P35968 20-1356 limits assumed): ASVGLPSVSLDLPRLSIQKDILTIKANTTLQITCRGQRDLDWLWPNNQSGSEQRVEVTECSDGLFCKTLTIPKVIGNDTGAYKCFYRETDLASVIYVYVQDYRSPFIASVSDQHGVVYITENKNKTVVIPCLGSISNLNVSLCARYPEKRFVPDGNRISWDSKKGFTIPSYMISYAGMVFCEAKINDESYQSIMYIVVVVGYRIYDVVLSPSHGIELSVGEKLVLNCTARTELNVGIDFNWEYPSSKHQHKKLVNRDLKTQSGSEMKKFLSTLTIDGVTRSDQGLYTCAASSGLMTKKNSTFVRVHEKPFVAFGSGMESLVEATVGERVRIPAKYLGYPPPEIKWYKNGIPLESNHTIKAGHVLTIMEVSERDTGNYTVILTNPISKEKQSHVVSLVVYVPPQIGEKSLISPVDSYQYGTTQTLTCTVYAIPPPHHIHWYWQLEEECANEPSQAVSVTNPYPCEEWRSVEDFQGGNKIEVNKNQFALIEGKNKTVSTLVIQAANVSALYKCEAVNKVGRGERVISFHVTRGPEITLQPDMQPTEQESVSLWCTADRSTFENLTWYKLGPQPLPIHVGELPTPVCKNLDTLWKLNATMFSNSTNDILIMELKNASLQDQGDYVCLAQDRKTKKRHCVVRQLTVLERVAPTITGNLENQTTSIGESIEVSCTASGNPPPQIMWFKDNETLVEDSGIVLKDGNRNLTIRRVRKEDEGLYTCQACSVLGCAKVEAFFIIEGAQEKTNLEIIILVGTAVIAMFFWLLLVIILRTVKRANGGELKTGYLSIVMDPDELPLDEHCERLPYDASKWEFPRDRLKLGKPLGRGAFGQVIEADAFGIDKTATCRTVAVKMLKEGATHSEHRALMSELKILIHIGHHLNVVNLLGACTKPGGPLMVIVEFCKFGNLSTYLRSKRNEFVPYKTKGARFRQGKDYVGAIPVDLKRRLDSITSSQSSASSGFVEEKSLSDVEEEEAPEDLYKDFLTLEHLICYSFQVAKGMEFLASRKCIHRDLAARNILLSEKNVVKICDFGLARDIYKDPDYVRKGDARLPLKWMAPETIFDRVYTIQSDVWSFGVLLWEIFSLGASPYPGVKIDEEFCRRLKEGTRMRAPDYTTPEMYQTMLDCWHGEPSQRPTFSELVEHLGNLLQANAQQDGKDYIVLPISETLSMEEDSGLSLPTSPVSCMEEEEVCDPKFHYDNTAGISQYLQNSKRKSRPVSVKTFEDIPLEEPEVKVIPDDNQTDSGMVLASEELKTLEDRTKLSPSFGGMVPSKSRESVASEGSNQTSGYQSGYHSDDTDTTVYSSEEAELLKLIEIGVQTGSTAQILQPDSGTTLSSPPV
Target sequence in this assay (P40337 whole entry partner): as the sequence (P40337 whole entry) above

Take `Cc1ccc(NC(=O)Cn2cc(-c3ccc4c(NC(=O)c5ccc(NC(=O)CCC(=O)N[C@H](C(=O)N6C[C@H](O)C[C@H]6C(=O)NCc6ccc(-c7scnc7C)cc6)C(C)(C)C)cc5)n[nH]c4c3)cn2)cc1C(F)(F)F`: in series [1], the pIC50 was less than 4.30. Also, the half-maximal inhibitory concentration (IC50) at 72 h in series [2] came out at 48.2 µM; in series [3], 28.2 µM; in series [4] it was 47.4 µM.
As to `Cc1ccc(NC(=O)Cn2cc(-c3ccc4c(NC(=O)c5ccc(NC(=O)CCCCC(=O)N6CCN(CCCCCC(=O)N[C@H](C(=O)N7C[C@H](O)C[C@H]7C(=O)NCc7ccc(-c8scnc8C)cc7)C(C)(C)C)CC6)cc5)n[nH]c4c3)cn2)cc1C(F)(F)F`, the pIC50 in series [1] was 4.62. Further, the IC50 at 72 h in series [2] is greater than 100 µM; in series [3], greater than 50 µM; in series [4], 26.8 µM.
As for `Cc1ccc(NC(=O)Cn2cc(-c3ccc4c(NC(=O)c5ccc(NC(=O)CCCCCC(=O)N[C@H](C(=O)N6C[C@H](O)C[C@H]6C(=O)NCc6ccc(-c7scnc7C)cc6)C(C)(C)C)cc5)n[nH]c4c3)cn2)cc1C(F)(F)F`, the pIC50 in series [1] was 5.14. The IC50 at 72 h in series [2] was greater than 100 µM; in series [3], greater than 50 µM; in series [4] it was 31.3 µM. Further, the pEC50 in series [5] was less than 5.48.
Regarding `Cc1ccc(NC(=O)Cn2cc(-c3ccc4c(NC(=O)c5ccc(NC(=O)CCCCCCCC(=O)N[C@H](C(=O)N6C[C@H](O)C[C@H]6C(=O)NCc6ccc(-c7scnc7C)cc6)C(C)(C)C)cc5)n[nH]c4c3)cn2)cc1C(F)(F)F`, the negative logarithm of the IC50 (pIC50) in series [1] is 4.97. In addition, the IC50 at 72 h is greater than 100 µM in series [2], greater than 50 µM in series [3] and 10.9 µM in series [4]. Moreover, the pEC50 in series [5] was less than 5.48. In series [6], the Emax worked out at 13.5%.
Regarding `Cc1ccc(NC(=O)Cn2cc(-c3ccc4c(NC(=O)c5ccc(NC(=O)CCCCCCCCCC(=O)N[C@H](C(=O)N6C[C@H](O)C[C@H]6C(=O)NCc6ccc(-c7scnc7C)cc6)C(C)(C)C)cc5)n[nH]c4c3)cn2)cc1C(F)(F)F`, the pIC50 in series [1] is 4.26. In addition, the IC50 at 72 h in series [2] is greater than 100 µM; in series [3] it was greater than 50 µM; in series [4] it was 12 µM.
As for `Cc1ccc(NC(=O)Cn2cc(-c3ccc4c(NC(=O)c5ccc(N6CCN(CCCCCC(=O)N[C@H](C(=O)N7C[C@H](O)C[C@H]7C(=O)NCc7ccc(-c8scnc8C)cc7)C(C)(C)C)CC6)cc5)n[nH]c4c3)cn2)cc1C(F)(F)F`, the pIC50 in series [1] is less than 4.30. Further, the IC50 at 72 h is 43.8 µM in series [2], greater than 50 µM in series [3] and greater than 100 µM in series [4].
For `Cc1ccc(NC(=O)Cn2cc(-c3ccc4c(NC(=O)c5ccc(NC(=O)CCCCC(=O)N6CCN(CCCCCCCC(=O)N[C@H](C(=O)N7C[C@H](O)C[C@H]7C(=O)NCc7ccc(-c8scnc8C)cc7)C(C)(C)C)CC6)cc5)n[nH]c4c3)cn2)cc1C(F)(F)F`, in that order: 4.35, 31.9 µM, 25 µM and 47.9 µM.
Take `Cc1ccc(NC(=O)Cn2cc(-c3ccc4c(NC(=O)c5ccc(N6CCN(CCCCC(=O)N[C@H](C(=O)N7C[C@H](O)C[C@H]7C(=O)NCc7ccc(-c8scnc8C)cc7)C(C)(C)C)CC6)cc5)n[nH]c4c3)cn2)cc1C(F)(F)F`: the pIC50 in series [1] is less than 4.30. Besides, the values for the IC50 at 72 h in series [2], in series [3] and in series [4] were greater than 100 µM, greater than 50 µM and 60.3 µM, respectively. Moreover, in series [5], the pEC50 was less than 5.48. Moreover, the Emax in series [6] was 8.7%.
Take `Cc1ccc(NC(=O)Cn2cc(-c3ccc4c(NC(=O)c5ccc(NC(=O)CCCCC(=O)N6CCN(CCCCCCC(=O)N[C@H](C(=O)N7C[C@H](O)C[C@H]7C(=O)NCc7ccc(-c8scnc8C)cc7)C(C)(C)C)CC6)cc5)n[nH]c4c3)cn2)cc1C(F)(F)F`: the pIC50 in series [1] was 4.69. Also, the IC50 at 72 h came to 24.1 µM in series [2], 29.6 µM in series [3] and 51.4 µM in series [4]. Also, the pEC50 in series [5] is less than 5.48. The Emax in series [6] stood at 31%.
Regarding `CNC(=O)c1cc(Oc2ccc(NC(=O)Nc3ccc(Cl)c(C(F)(F)F)c3)cc2)ccn1` [SORAFENIB], the pIC50 in series [1] is 5.29. The IC50 at 72 h is 6.38 µM in series [2], 9.66 µM in series [3] and 9.47 µM in series [4].
The matching figures for `Cc1ccc(NC(=O)Cn2cc(-c3ccc4c(NC(=O)c5ccc(NC(=O)CCCCC(=O)N6CCN(CCCC(=O)N[C@H](C(=O)N7C[C@H](O)C[C@H]7C(=O)NCc7ccc(-c8scnc8C)cc7)C(C)(C)C)CC6)cc5)n[nH]c4c3)cn2)cc1C(F)(F)F`: 4.51, 38.2 µM, 10.9 µM and 25.4 µM.
For `Cc1ccc(NC(=O)Cn2cc(-c3ccc4c(NC(=O)c5ccc(N6CCN(C(=O)NCCCCCCC(=O)N[C@H](C(=O)N7C[C@H](O)C[C@H]7C(=O)NCc7ccc(-c8scnc8C)cc7)C(C)(C)C)CC6)cc5)n[nH]c4c3)cn2)cc1C(F)(F)F`, in that order: less than 4.30, greater than 100 µM, greater than 100 µM and greater than 100 µM.
For `Cc1ccc(NC(=O)Cn2cc(-c3ccc4c(NC(=O)c5ccc(N6CCN(C(=O)NCCCCCCCCCCC(=O)N[C@H](C(=O)N7C[C@H](O)C[C@H]7C(=O)NCc7ccc(-c8scnc8C)cc7)C(C)(C)C)CC6)cc5)n[nH]c4c3)cn2)cc1C(F)(F)F`, in that order: less than 4.30, greater than 100 µM, greater than 100 µM and greater than 100 µM.
Turning to `Cc1ccc(NC(=O)Cn2cc(-c3ccc4c(NC(=O)c5ccc(NC(=O)CCCCCCCCC(=O)N[C@H](C(=O)N6C[C@@H](O)C[C@H]6C(=O)NCc6ccc(-c7scnc7C)cc6)C(C)(C)C)cc5)n[nH]c4c3)cn2)cc1C(F)(F)F`, in series [1], the pIC50 was 5.68. For the same compound, the IC50 at 72 h was greater than 100 µM in series [2], 12.2 µM in series [3] and 5.13 µM in series [4]. The pEC50 in series [5] was less than 5.48.
For `Cc1ccc(NC(=O)Cn2cc(-c3ccc4c(NC(=O)c5ccc(N6CCN(CCCCCCCC(=O)N[C@H](C(=O)N7C[C@H](O)C[C@H]7C(=O)NCc7ccc(-c8scnc8C)cc7)C(C)(C)C)CC6)cc5)n[nH]c4c3)cn2)cc1C(F)(F)F`, in that order: 4.65, greater than 100 µM, greater than 50 µM, greater than 100 µM and less than 5.48.
For `Cc1ccc(NC(=O)Cn2cc(-c3ccc4c(NC(=O)c5ccc(N)cc5)nn(C(=O)CCCCCCCCC(=O)N[C@H](C(=O)N5C[C@H](O)C[C@H]5C(=O)NCc5ccc(-c6scnc6C)cc5)C(C)(C)C)c4c3)cn2)cc1C(F)(F)F`, in that order: 4.92, 44.9 µM, 5.5 µM, 3.36 µM and less than 5.48.
As for `Cc1ccc(NC(=O)Cn2cc(-c3ccc4c(NC(=O)c5ccc(N6CCN(C(=O)NCCCCCCCCC(=O)N[C@H](C(=O)N7C[C@H](O)C[C@H]7C(=O)NCc7ccc(-c8scnc8C)cc7)C(C)(C)C)CC6)cc5)n[nH]c4c3)cn2)cc1C(F)(F)F`, the pIC50 in series [1] is less than 4.30. The IC50 at 72 h in series [2], in series [3] and in series [4] was greater than 100 µM each time.

One may read the pIC50 as the IC50 on a negative log10 scale, so that one unit is a factor of ten. By IC50 is commonly meant the concentration needed to halve the response being measured. One may read the pEC50 as the negative decadic logarithm of the EC50, by convention in mol/L.
